In patent publication US20060270631A1, “Methods for the treatment and prevention of angiogenic diseases” (priority 2005, published 2006):

Experiments:
endogenous SK [1] = experiment: Cellular SK activity in bovine retinal endothelial cells; format: cell-based; settings: 25 μg/mL (approximately 80 μM), 4 hours
Description: FIG. 3. Inhibition of cellular SK activity in RECs. Bovine retinal endothelial cells were incubated with 20 μM dimethylsphingosine (DMS) or 25 μg/mL Compound I, Compound II or Compound V (approximately 80 μM for each compound) for 4 hours before the addition of 0.4 μCi of [^3H]sphingosine. After 15 minutes, cells were lysed and extracted with chloroform: methanol. The total amounts of [^3H]sphingosine in the organic phase and [^3H]S1P in the aqueous phase were then determined. Values represent the mean±SD of duplicate samples in a typical experiment.
(§1) Cellular S1P formation assay. Cells were grown to confluency in 24-well tissue culture plates and serum-starved for 24 hours as described above. Cells were then treated with 1% DMSO (as the drug vehicle), 20 μM dimethylsphingosine, or the indicated concentration of an SK inhibitor for 4 hours. The cells were then incubated with [^3H]sphingosine for 15 minutes, and the formation of [^3H]S1P was measured as previously described (French et al., Cancer Res 63: 5962 (2003)). In some assays, the cells were serum-starved for 24 hours and then treated with VEGF (50 ng/mL) alone or in the presence of an SK inhibitor for an additional 12 hours. [^3 H]Sphingosine was then added for 15 minutes, and its conversion to [^3H]S1P was measured as indicated above.
A cell-based assay in which the phosphorylation of exogenously added [^3H]sphingosine to [^3H]S1P by endogenous SK can be quantified (French et al., Cancer Res 63: 5962 (2003)) was used to evaluate the effects of test compounds on the activity of SK in intact cells. In this assay, cells are incubated with [^3 H]sphingosine for an appropriate period of time, and then [^3H]sphingosine and [^3H]S1P (formed by endogenous SK activity) are separated by extraction and levels of both species are determined by scintillation counting. We have used a number of cell lines in this assay to confirm that the SK inhibitors are active in multiple intact cell systems. For example, human umbilical vein endothelial cells (HUVECs) are commonly used as a model of human vasculature. […] Similarly, the enzymatic activity of SK in bovine RECs, and its sensitivity to SK inhibitors were assessed. […] Each of inhibitors of SK (Compound I, Compound II and Compound V) was also active against the endogenous SK activity in the bovine RECs.

phosphorylated ERK1/2 = experiment: Western analysis of phosphorylated ERK1/2 in human RECs; format: cell-based
Description: (§2) Western Blotting. Protein concentrations were determined using the fluorescamine assay (Bohlen et al., Arch Biochem Biophys 155: 213 (1973)) with bovine serum albumin as the standard. Samples were normalized for equal amounts of protein per lane (100 μg), separated by sodium dodecylsulfate-polyacrylamide gel electrophoresis and electrotransferred to nitrocellulose membranes. For SK analyses, membranes were blocked with 5% nonfat milk in Tris-buffered saline with Tween 20 and probed with an anti-SK rabbit polyclonal antibody at a 1:50 dilution, washed and incubated with […] antibodies conjugated to horseradish peroxidase (1 hr in 3% nonfat milk). The blots were then washed 4 times for 5 minutes at room temperature, developed with SuperSignal development reagents (Pierce Biotechnology, Inc., Rockford, Ill.) and exposed to Kodak XAR film. […]
(§3) Western analyses were conducted to evaluate the effects of Compound II on signaling proteins known to be regulated in endothelial cells by VEGF or TNFα. […] Cell lysates from cells treated with VEGF for 15 minutes were then analyzed for levels of phosphorylated ERK1/2 as a measure of signaling through the Ras-mediated proliferation pathway. Samples from cells treated with TNFα were analyzed for activation of NFκB, i.e. phosphoNFκB, and the down-stream proteins, cyclooxygenase-2 (Cox-2), E-selectin and VCAM-1. […]

E-selectin and VCAM-1 = experiment: Western analysis of TNFα-induced E-selectin and VCAM-1 in human RECs; format: cell-based; settings: TNFα 100 ng/mL, 6 hours
Description: as §2, §3

endogenous SK [2] = experiment: Cellular S1P formation assay in HUVECs; format: cell-based, human; settings: read-out: drug concentration that decreases S1P formation by 50%
Description: FIG. 2. Inhibition of S1P production in HUVECs by SK inhibitors. […] After 15 minutes, cells were lysed and extracted with chloroform: methanol, and the amounts of [^3H]sphingosine in the organic phase and [^3H]S1P in the aqueous phase were then determined. Values represent the mean±sd SK activity.
as §1, with “In some assays, the cells were serum-starved for 24 hours and then treated with VEGF (50 ng/mL) alone or in the presence of an SK inhibitor for an additional 12 hours.” left out
A cell-based assay in which the phosphorylation of exogenously added [^3H]sphingosine to [^3H]S1P by endogenous SK can be quantified (French et al., Cancer Res 63: 5962 (2003)) was used to evaluate the effects of test compounds on the activity of SK in intact cells. […] Similarly, the enzymatic activity of SK in bovine RECs, and its sensitivity to SK inhibitors were assessed. […]

human RECs = experiment: VEGF-stimulated proliferation of human RECs ([3H]thymidine incorporation); format: cell-based; settings: VEGF 50 ng/mL, 12 hours + 2 hours [3H]thymidine, serum-starved human RECs
Description: FIG. 6. Effects of Compound II on VEGF-stimulated proliferation of RECs. Human RECs were serum-starved for 24 hours and then left untreated or incubated with VEGF (50 ng/mL) in the presence of the indicated concentration (in μM) of Compound II for 12 hours. [3H]Thymidine was then added and the cultures were incubated an additional 2 hours. The amount of [^3H]thymidine incorporated into DNA was determined. Values represent the mean±SD of duplicate samples in a typical experiment.
Cell proliferation assay. Cells were grown to confluence in 24-well tissue culture plates and serum-starved overnight as described above. Cells were then treated with 50 ng/mL of VEGF and varying concentrations of Compound II for 12 hours. At that time, 16 μCi of [3H]thymidine was added to each well, and the cultures were incubated for an additional 2 hours. The media was then removed by aspiration, the cells were washed twice with cold PBS, and 0.8 mL of ice-cold 10% trichloroacetic acid was added to each well. […] The samples were incubated at 37° C. for 30 minutes, scraped into scintillation vials, and the amount of ^3H in the recovered genomic DNA was quantified by scintillation counting.
We next evaluated the effects of VEGF on the proliferation of human RECs by measuring the effects of the growth factor of the incorporation of [^3H]thymidine into the DNA of serum-starved cells. […]

IC50 (endogenous SK [2]): 0.2 µM
SMILES: Oc1ccc(Nc2nc(-c3ccc(Cl)cc3)cs2)cc1 [Compound II]
endogenous SK activity in bovine RECs (endogenous SK [1]): active
VEGF-promoted phosphorylation of ERK1/2 (phosphorylated ERK1/2; VEGF 50 ng/mL, 15 minutes): completely abrogated
residual pERK1/2 in serum-starved cells (phosphorylated ERK1/2; human RECs, no VEGF): eliminated
TNFα-induced up-regulation of E-selectin expression (E-selectin and VCAM-1): completely blocked
TNFα-induced up-regulation of VCAM-1 expression (E-selectin and VCAM-1): completely blocked
concentration blocking the mitogenic response to VEGF (human RECs): ≥ 1.3 µM
